Assay [1] has as its system HEK293. In words: HEK cell cytotoxicity by LDH release, dose response, cytotoxicity control for IDE activator project, fluorescence, HEK cells (AID 588440).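 Note: cytotoxicity by LDH release measuring loss of membrane integrity.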 In kind it is functional, cell-based. The conditions noted are these: Homo sapiens. (In general: LDH leaks from cells whose membrane has failed.)
Assay [2] addresses T1, Insulin-degrading enzyme (Homo sapiens, UniProt P14735).
T1 sequence (P14735 whole entry): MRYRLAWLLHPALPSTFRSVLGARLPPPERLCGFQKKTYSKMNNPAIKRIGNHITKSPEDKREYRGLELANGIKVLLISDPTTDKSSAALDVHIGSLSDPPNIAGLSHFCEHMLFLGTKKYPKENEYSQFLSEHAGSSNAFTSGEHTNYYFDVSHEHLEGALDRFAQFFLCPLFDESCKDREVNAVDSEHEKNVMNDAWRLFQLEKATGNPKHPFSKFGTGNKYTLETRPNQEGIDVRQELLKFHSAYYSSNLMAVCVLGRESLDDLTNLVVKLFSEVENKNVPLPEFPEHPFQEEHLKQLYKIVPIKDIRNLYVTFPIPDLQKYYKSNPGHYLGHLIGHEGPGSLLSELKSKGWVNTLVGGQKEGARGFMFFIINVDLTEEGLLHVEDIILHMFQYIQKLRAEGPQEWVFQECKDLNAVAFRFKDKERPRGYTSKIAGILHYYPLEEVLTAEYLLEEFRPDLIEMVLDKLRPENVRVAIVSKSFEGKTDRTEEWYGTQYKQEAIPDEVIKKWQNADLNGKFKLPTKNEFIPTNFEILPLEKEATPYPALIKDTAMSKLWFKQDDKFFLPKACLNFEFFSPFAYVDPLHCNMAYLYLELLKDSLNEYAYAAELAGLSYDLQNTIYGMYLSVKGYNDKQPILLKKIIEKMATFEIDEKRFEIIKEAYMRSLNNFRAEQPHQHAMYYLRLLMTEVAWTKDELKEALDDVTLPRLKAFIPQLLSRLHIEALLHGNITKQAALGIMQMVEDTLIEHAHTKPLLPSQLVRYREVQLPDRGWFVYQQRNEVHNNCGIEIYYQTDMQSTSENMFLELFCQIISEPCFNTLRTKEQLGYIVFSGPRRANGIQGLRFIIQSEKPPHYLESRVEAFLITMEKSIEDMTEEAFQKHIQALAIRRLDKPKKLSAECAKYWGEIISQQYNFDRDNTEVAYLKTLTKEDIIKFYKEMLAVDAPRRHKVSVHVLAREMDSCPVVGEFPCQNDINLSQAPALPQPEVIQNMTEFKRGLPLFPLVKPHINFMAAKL
Put plainly: activators of endogenous IDE in HEK cells, dose response, cell-based, fluorescence polarization (AID 588439). In kind it is functional. (Polarisation of emitted light reports the rotation of a fluorescent probe.)

The subject of assay [3] is HEK293. In words: optical interference in Abeta FP readout, dose response, artefact control for IDE activator project, biochemical, fluorescence polarization (AID 588442). To be noted: Homo sapiens. In kind it is functional, cell-based.
Assay [4] addresses T1, Insulin-degrading enzyme. In words: activators of recombinant IDE enzyme, dose response, counter-screen for IDE activator project, biochemical, fluorescence polarization (AID 588681). In general terms: Counterscreens check selectivity or assay interference.
In assay [5] the target is Melanin-concentrating hormone receptor 1 (Homo sapiens, UniProt Q99705). In words: Late-stage fluorescence-based counterscreen for antagonists of the G-protein coupled receptor 7 (GPR7): cell-based dose response assay to identify antagonists of the melanin-concentrating hormone receptor 1 (MCHR1) Set 6. Format: functional.
Sequence of Melanin-concentrating hormone receptor 1 (Q99705 whole entry): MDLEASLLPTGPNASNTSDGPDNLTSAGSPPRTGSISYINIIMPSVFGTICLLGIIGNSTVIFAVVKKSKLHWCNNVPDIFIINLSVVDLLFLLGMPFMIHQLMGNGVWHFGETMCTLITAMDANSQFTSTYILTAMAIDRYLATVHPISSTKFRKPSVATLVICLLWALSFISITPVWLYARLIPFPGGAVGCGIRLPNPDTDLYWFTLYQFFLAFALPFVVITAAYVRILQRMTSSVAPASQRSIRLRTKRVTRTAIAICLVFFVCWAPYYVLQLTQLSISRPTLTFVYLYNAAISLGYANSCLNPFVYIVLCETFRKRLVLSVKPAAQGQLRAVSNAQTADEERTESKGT
In assay [6] the target is T2, Neuropeptides B/W receptor type 1 (Homo sapiens, UniProt P48145).
T2 sequence (P48145 whole entry): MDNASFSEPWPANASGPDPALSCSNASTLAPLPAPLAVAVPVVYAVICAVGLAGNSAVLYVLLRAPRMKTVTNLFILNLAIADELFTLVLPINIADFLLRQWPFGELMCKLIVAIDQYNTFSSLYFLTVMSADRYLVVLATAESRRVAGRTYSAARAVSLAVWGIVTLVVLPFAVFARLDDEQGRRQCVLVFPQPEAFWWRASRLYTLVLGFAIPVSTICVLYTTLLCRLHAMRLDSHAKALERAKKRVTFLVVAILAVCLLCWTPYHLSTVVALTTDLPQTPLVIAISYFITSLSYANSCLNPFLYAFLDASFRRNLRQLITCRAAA
Put plainly: GPR7 antagonist potency, late-stage follow-up, cell-based, fluorescence, dose response, set 6 (AID 588583). Format: functional.

For assay [7], the target named is T3, High affinity choline transporter 1 (Homo sapiens, UniProt Q9GZV3).
T3 sequence (Q9GZV3 whole entry): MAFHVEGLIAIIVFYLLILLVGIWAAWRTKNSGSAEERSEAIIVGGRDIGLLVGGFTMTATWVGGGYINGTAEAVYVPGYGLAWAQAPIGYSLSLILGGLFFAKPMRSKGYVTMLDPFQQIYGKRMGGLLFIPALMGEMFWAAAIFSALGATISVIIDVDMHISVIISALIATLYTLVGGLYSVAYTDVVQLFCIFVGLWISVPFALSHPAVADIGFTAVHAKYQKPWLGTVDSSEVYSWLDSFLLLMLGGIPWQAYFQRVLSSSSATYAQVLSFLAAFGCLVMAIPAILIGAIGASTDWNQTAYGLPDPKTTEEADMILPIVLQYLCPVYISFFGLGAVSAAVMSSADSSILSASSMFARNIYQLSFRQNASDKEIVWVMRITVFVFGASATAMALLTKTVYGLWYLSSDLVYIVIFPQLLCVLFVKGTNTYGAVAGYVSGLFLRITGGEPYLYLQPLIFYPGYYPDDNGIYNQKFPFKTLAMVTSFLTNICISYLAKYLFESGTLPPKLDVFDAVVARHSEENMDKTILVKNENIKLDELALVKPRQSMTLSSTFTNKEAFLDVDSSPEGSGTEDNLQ
In words: CHT inhibitors, dose response, cell-based, 10-point CRC, membrane potential dye (AID 588401).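 Note: membrane potential dye fluorescence of choline-evoked depolarization via CHT.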 Format: functional.

Assay [8] addresses T3, High affinity choline transporter 1. Put plainly: CHT inhibitors, dose response, cell-based, 5-point CRC, membrane potential dye (AID 504840). Format: functional.
For the next assay, the target named is T4, Caspase-3 (Homo sapiens, UniProt P42574).
T4 sequence (P42574 whole entry): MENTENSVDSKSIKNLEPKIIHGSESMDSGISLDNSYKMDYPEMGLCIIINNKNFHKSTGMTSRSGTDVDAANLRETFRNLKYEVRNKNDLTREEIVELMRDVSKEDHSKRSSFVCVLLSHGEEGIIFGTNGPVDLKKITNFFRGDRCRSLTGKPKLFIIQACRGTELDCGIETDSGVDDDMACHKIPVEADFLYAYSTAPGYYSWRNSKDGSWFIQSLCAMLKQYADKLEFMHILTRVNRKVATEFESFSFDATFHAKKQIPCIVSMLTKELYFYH
In words: SAR Analysis of small molecule inhibitors of Sentrin-specific proteases (SENPs) using a Caspase-3 Selectivity assay. [Related pubchem assays (depositor defined):AID2540, AID2599, AID434973, AID489001]. Format: functional.

The target in assay [9] is T5, Sentrin-specific protease 8 (Homo sapiens, UniProt Q96LD8).
T5 sequence (Q96LD8 whole entry): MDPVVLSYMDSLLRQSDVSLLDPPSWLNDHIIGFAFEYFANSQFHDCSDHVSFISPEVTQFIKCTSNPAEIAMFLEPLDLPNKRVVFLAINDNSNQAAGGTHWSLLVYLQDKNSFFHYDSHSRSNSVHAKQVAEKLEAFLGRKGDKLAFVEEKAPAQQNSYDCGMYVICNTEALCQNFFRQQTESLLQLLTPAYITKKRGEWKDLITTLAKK
In words: SENP8 protease inhibitors, SAR follow-up, biochemical, luminescence (AID 504501). Format: functional.

For assay [10], the target named is T6, Sentrin-specific protease 6 (Homo sapiens, UniProt Q9GZR1).
T6 sequence (Q9GZR1 whole entry): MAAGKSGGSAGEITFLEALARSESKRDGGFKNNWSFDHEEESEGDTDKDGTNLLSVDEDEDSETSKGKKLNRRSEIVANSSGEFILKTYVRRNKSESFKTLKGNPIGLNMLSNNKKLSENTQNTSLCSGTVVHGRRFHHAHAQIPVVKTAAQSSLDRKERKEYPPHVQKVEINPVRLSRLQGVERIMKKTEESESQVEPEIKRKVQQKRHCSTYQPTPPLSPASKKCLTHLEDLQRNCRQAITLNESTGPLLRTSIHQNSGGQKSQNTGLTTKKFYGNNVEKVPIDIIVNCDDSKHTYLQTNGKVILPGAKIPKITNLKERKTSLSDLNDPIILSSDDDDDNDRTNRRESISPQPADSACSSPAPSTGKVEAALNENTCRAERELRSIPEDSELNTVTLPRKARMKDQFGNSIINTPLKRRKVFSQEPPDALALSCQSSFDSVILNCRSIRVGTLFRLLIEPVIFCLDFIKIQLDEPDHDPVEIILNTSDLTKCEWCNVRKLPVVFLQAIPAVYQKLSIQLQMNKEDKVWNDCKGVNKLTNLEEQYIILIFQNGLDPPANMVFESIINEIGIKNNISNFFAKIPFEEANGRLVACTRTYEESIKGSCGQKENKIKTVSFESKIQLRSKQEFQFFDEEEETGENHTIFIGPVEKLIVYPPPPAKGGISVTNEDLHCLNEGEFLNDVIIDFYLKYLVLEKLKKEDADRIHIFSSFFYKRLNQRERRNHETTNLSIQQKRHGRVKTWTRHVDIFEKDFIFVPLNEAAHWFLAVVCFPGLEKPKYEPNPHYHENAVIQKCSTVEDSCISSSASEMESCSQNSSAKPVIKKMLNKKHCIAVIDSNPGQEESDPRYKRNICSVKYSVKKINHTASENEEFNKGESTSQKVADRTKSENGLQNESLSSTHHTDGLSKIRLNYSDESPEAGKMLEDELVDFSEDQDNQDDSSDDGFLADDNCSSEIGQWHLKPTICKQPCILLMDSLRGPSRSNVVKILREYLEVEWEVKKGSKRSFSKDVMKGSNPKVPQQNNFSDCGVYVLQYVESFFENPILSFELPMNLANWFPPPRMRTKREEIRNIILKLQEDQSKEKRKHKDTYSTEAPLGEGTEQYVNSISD
Put plainly: SAR Analysis of small molecule inhibitors of Sentrin-specific protease 6 (SENP6) using a Luminescent assay. [Related pubchem assays (depositor defined):AID2582, AID2599]. Format: functional.

Assay [11] concerns the target T7, Sentrin-specific protease 7 (Homo sapiens, UniProt Q9BQF6).
T7 sequence (Q9BQF6 whole entry): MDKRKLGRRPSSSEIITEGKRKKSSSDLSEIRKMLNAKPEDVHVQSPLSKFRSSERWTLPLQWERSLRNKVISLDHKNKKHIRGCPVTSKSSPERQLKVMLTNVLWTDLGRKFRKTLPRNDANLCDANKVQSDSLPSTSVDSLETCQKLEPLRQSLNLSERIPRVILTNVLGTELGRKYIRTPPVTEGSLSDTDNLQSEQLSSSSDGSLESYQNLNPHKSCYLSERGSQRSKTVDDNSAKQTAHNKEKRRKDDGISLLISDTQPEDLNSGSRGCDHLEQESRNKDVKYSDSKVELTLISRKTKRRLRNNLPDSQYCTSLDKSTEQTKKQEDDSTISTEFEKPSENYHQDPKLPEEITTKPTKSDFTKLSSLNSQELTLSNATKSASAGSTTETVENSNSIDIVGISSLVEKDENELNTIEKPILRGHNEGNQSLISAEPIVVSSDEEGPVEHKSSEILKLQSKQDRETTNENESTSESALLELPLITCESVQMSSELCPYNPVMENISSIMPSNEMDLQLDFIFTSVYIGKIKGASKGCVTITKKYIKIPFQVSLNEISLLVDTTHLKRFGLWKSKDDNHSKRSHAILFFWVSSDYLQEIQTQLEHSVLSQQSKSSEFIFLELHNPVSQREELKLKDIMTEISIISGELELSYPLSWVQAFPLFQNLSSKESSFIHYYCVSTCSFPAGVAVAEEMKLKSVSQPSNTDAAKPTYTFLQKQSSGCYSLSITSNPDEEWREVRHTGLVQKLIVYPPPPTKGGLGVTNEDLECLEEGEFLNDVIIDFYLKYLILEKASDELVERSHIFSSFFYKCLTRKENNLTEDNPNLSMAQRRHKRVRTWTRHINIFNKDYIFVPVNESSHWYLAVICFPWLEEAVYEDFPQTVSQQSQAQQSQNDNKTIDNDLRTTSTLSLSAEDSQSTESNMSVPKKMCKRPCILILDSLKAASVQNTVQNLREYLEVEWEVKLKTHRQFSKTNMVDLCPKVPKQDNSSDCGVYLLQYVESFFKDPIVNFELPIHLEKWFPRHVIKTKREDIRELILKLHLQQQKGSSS
Put plainly: SENP7 protease inhibitors, SAR follow-up, biochemical, luminescence (AID 504497). In kind it is functional.

The source made the active and inactive calls. A value given as a limit tells only on which side of the number the result lay.

`CNC[C@@H]1Oc2ccc(NS(=O)(=O)c3ccc(OC)cc3)cc2CC(=O)N([C@H](C)CO)C[C@@H]1C`: the IC50 (usually the midpoint of a concentration-inhibition curve) in the assay with HEK293 [1] was > 89.2 µM (inactive). Also, the EC50 (commonly the concentration needed to bring the measured effect to its halfway point) at Insulin-degrading enzyme [2] is > 54.7 µM (inactive); with HEK293 [3], > 55.9 µM (inactive); at Insulin-degrading enzyme [4], > 54.7 µM (inactive).
For `N#CC(c1cccc(C(F)(F)F)c1)c1c(Cl)cnn(Cc2cccc3ccccc23)c1=O` (stereo not given), the IC50 in assay [5] and in assay [6] was 1.53 µM (active) in each case.
In the case of `O=C(C[n+]1cccc(Br)c1)c1ccccc1`, the 50% inhibitory concentration (IC50) in assay [7] is 2.84 µM (active); in [8], 3.23 µM (active).
For `Cc1nnc(C(C#N)c2c(Cl)cnn(Cc3cccc4ccccc34)c2=O)o1` (stereo not given), the IC50 in assay [5] and in assay [6] was 0.435 µM (active) in each case.
Take `CC(=O)OC1CC2(C)C(=O)CCC2C2CCc3cc(O)ccc3C12` (stereo not given): the 50% inhibitory concentration (IC50) was 3.36 µM (active) in assay [7] and 9.28 µM (active) in assay [8].
On to `N#Cc1c(NC(=O)c2ccc(Cn3cc(Br)cn3)o2)sc2c1CCCCCC2`, for which the IC50 (on Caspase-3; in assay [9]; in [10]; in assay [11]) was > 99 µM (inactive) each time.
For `CCCCc1ccc2nc(NC(=O)c3csc4ccccc34)sc2c1`, the IC50 (at Caspase-3; in assay [9]; in assay [10]; in assay [11]) was > 99 µM (inactive) in each case.
